The target in experiment [1] is T1, Lysine-specific histone demethylase 1A (Homo sapiens, UniProt O60341). As to the kind of experiment: Reversible inhibition of full-length 6His-tagged LSD1 (unknown origin) at 10XIC50 preincubated for 1 hr followed by 100 fold dilution relative to control.
The test system of a further experiment is T47D. As to the kind of experiment: cells. The following applies: Homo sapiens, 96 h.
In experiment [2] the target is T1, Lysine-specific histone demethylase 1A. Kind of experiment: Reversible inhibition of full-length 6His-tagged LSD1 (unknown origin) at 10XIC50 after 1 hr relative to control.
Experiment [3] has the same target. Kind of experiment: Binding affinity to recombinant full-length His6-tagged LSD1 (unknown origin) assessed as first derivative melting temperature at 15 uM after 30 mins by differential scanning fluorimetry. (In general: DSF heats the sample and reads unfolding from a dye or from intrinsic fluorescence.)
For experiment [4] the target is unchanged.
Description: Inhibition of LSD1 (unknown origin) using dimethyl K4 peptide as substrate assessed as resorufin level by spectrophotometric analysis
The target is the same in experiment [5]. Kind of experiment: Binding affinity to recombinant full-length His6-tagged LSD1 (unknown origin) assessed as Boltzmann melting temperature at 15 uM after 30 mins by differential scanning fluorimetry.
The target is the same in experiment [6]. Kind of experiment: Binding affinity to recombinant full-length His6-tagged LSD1 (unknown origin) assessed as second derivative melting temperature at 15 uM after 30 mins by differential scanning fluorimetry (reference value: […] +/- 1.08 degC).
For experiment [7] the target is unchanged. Kind of experiment: Inhibition of GST-tagged human recombinant LSD1 using dimethylated H3K4 peptide as substrate by mass spectrometric analysis.
The nature of experiment [8]: Inhibition of D-lactate dehydrogenase (unknown origin). Also on record: species or system Homo sapiens.
The target in the next experiment is Cytochrome P450 2C19 (Homo sapiens, UniProt P33261). As to the kind of experiment: Inhibition of CYP2C19 (unknown origin). The class given is ADME.
For another experiment, the target named is Cytochrome P450 2C9 (Homo sapiens, UniProt P11712). As to the kind of experiment: Inhibition of CYP2C9 (unknown origin). The class given is ADME.
The target in experiment [9] is T2, Amine oxidase [flavin-containing] B (Homo sapiens, UniProt P27338).
T2 sequence (P27338 whole entry): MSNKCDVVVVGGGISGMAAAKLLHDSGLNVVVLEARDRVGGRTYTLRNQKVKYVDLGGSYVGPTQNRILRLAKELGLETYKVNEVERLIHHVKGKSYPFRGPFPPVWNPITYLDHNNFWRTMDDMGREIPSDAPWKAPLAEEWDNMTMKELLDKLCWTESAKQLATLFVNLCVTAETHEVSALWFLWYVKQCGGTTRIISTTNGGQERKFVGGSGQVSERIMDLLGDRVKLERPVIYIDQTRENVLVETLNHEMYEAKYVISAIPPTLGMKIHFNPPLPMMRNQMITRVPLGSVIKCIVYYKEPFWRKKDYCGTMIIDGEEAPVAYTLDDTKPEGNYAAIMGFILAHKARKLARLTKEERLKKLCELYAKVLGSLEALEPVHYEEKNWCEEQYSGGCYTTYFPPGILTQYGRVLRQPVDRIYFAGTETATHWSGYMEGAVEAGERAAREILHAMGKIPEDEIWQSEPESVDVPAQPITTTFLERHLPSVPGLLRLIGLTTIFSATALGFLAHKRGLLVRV
Description: Inhibition of MAO-B (unknown origin)

In a further experiment the target is T3, Cytochrome P450 1A2 (Homo sapiens, UniProt P05177).
T3 sequence (P05177 whole entry): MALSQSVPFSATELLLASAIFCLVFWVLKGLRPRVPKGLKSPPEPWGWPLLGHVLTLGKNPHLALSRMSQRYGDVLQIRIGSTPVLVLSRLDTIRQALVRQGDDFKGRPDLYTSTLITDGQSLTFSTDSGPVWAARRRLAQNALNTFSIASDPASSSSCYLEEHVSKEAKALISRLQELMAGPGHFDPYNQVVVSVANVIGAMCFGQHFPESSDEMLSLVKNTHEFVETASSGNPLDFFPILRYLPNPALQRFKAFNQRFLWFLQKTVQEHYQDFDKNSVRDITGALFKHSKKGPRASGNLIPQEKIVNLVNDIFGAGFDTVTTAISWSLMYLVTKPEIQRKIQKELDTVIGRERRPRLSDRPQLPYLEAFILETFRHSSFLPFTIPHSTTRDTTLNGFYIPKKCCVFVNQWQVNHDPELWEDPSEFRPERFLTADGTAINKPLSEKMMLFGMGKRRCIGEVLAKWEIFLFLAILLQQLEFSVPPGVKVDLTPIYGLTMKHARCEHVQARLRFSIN
Kind of experiment: Inhibition of CYP1A2 (unknown origin). It counts as ADME.

The target in experiment [10] is T1, Lysine-specific histone demethylase 1A. Kind of experiment: Non-competitive inhibition of recombinant full-length His6-tagged LSD1 (unknown origin) using dimethylated K4N-terminal H3 peptide as substrate at 30 nM by Michaelis-Menten plot analysis.
The nature of experiment [11]: Inhibition of glucose oxidase (unknown origin). More on the design: […].
In the next experiment the target is Cytochrome P450 2D6 (Homo sapiens, UniProt P10635). As to the kind of experiment: Inhibition of CYP2D6 (unknown origin). It counts as ADME.
The next experiment has as its target Cytochrome P450 3A4 (Homo sapiens, UniProt P08684). As to the kind of experiment: Inhibition of CYP3A4 (unknown origin). The class given is ADME.
In experiment [12] the target is T1, Lysine-specific histone demethylase 1A. As to the kind of experiment: Non-competitive inhibition of recombinant full-length His6-tagged LSD1 (unknown origin) using dimethylated K4N-terminal H3 peptide as substrate at 100 nM by Michaelis-Menten plot analysis.
Experiment [13] concerns the target T4, Amine oxidase [flavin-containing] A (Homo sapiens, UniProt P21397).
T4 sequence (P21397 whole entry): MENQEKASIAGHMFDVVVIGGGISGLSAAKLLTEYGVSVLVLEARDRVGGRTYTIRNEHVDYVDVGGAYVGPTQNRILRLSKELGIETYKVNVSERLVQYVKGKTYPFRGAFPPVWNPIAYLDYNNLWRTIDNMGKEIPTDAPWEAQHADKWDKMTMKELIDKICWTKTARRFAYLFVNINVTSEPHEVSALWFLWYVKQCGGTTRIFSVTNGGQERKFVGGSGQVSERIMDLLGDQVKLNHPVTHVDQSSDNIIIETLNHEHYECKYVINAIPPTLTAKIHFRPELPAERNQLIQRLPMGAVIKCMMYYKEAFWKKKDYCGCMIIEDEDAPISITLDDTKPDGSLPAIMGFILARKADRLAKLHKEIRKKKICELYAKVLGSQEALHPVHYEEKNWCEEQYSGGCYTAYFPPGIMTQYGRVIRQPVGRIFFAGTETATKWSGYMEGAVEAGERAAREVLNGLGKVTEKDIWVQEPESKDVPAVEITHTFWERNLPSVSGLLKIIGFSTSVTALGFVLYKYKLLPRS
Description: Inhibition of MAO-A (unknown origin)

In experiment [14] the target is T1, Lysine-specific histone demethylase 1A. Kind of experiment: Non-competitive inhibition of recombinant full-length His6-tagged LSD1 (unknown origin) using dimethylated K4N-terminal H3 peptide as substrate at 3 nM by Michaelis-Menten plot analysis.
The target is the same in experiment [15]. Kind of experiment: Non-competitive inhibition of recombinant full-length His6-tagged LSD1 (unknown origin) using dimethylated K4N-terminal H3 peptide as substrate at 10 nM by Michaelis-Menten plot analysis.
Experiment [16] addresses Voltage-gated inwardly rectifying potassium channel KCNH2 (Homo sapiens, UniProt Q12809). As to the kind of experiment: Inhibition of human ERG.
The target in experiment [17] is T1, Lysine-specific histone demethylase 1A. As to the kind of experiment: Non-competitive inhibition of recombinant full-length His6-tagged LSD1 (unknown origin) using dimethylated K4N-terminal H3 peptide as substrate at 1 nM by Michaelis-Menten plot analysis.
For experiment [18] the target is unchanged. Kind of experiment: Inhibition of human recombinant LSD1 expressed in Escherichia coli BL21(DE3) using H3K4me2 as substrate by chemiluminescence assay.

Active and inactive are the calls of the source. No cut-off for these calls is given here.

A word on the inhibition: it is the share of the control response that was lost under treatment. By IC50 is commonly meant the midpoint of a concentration-inhibition curve. A word on the Ki: it is the dissociation constant of the complex between target and ligand, obtained from inhibition or displacement.

Sequence of Cytochrome P450 3A4 (P08684 whole entry): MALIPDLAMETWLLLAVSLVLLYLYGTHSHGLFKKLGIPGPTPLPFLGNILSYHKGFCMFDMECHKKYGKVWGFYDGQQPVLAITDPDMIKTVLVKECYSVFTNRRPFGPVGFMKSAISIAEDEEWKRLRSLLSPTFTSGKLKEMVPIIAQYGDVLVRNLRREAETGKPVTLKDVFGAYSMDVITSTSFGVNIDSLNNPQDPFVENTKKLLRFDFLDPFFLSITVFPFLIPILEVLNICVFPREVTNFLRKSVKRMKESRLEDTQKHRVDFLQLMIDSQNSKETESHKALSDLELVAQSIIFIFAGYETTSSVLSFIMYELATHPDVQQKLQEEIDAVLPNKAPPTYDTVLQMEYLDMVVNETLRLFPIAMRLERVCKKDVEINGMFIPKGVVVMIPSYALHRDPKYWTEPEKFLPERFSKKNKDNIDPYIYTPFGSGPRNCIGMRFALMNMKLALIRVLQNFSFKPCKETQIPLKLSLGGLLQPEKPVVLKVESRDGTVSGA
Sequence of Cytochrome P450 2C9 (P11712 whole entry): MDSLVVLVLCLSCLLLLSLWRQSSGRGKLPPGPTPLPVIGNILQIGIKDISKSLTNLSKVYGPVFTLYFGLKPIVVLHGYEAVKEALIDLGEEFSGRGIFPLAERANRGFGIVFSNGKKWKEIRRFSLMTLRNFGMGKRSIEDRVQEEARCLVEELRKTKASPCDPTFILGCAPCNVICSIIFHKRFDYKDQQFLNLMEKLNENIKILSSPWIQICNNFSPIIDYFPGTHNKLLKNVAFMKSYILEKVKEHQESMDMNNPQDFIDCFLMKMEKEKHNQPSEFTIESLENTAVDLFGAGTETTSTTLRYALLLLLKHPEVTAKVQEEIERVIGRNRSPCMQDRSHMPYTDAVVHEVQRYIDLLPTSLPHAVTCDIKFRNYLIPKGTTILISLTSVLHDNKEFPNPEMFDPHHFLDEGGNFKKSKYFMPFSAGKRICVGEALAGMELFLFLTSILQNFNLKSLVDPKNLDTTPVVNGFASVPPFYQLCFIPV
Sequence of Voltage-gated inwardly rectifying potassium channel KCNH2 (Q12809 whole entry): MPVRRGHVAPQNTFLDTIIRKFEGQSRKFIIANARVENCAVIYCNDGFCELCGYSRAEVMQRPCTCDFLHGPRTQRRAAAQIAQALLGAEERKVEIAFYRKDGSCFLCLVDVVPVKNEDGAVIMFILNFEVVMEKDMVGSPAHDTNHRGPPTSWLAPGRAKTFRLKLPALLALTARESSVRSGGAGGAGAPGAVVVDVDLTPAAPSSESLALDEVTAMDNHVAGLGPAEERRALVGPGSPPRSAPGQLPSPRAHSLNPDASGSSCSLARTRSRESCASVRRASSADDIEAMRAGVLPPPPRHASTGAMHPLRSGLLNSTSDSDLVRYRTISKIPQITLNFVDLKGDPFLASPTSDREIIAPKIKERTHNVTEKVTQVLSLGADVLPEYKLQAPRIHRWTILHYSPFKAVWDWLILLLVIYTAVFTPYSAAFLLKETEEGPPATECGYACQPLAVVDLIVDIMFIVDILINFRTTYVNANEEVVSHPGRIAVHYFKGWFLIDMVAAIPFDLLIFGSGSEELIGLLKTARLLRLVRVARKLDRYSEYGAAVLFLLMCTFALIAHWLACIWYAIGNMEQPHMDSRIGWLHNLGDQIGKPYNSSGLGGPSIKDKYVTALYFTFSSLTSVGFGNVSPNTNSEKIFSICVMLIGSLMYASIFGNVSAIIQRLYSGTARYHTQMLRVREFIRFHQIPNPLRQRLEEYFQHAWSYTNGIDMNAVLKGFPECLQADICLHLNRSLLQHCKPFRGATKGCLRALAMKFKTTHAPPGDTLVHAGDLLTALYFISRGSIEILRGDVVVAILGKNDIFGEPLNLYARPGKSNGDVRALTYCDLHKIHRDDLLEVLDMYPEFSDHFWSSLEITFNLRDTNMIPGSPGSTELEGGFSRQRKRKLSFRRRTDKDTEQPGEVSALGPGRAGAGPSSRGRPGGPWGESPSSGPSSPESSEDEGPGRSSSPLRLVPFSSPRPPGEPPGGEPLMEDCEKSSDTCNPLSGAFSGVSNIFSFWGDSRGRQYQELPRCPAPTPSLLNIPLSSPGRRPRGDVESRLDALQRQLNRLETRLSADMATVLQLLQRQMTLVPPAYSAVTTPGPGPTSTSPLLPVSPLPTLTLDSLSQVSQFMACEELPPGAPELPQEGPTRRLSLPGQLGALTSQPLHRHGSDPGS
Sequence of Cytochrome P450 2C19 (P33261 whole entry): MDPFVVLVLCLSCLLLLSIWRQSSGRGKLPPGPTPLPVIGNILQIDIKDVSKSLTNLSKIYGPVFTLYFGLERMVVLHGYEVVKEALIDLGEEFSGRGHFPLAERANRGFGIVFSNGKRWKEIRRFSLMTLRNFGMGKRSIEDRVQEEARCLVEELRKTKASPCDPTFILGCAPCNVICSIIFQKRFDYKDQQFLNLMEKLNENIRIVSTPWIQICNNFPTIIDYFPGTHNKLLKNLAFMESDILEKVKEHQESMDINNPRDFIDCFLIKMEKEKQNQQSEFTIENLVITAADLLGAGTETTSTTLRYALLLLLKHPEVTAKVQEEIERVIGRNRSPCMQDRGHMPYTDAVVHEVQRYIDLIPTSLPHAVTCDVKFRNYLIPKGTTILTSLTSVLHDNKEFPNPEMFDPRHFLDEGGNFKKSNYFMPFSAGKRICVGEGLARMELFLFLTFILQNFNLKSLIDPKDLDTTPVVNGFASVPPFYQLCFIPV
Sequence of Cytochrome P450 2D6 (P10635 whole entry): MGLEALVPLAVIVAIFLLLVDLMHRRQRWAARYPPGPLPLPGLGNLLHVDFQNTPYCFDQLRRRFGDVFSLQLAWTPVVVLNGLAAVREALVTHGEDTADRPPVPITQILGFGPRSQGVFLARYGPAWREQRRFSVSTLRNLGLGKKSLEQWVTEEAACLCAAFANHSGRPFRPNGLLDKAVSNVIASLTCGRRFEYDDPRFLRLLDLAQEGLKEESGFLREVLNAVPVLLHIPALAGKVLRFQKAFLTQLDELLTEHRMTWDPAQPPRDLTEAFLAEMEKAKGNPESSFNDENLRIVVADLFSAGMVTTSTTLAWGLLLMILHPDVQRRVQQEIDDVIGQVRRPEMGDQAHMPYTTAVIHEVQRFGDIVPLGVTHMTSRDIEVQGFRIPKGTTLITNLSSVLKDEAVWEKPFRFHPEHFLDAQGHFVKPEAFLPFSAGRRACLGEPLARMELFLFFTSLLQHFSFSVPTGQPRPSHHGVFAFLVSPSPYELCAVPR

With `C/C(=N\NC(=O)c1cccc(S(=O)(=O)N2CCOCC2)c1)c1cc(Cl)ccc1Cl`, the inhibition result in [1] and in experiment [2] was “inactive” throughout. In addition, the figures for the IC50 (in the experiment on T47D; in experiment [4]) were 1.7 µM and above 3 µM, respectively. Besides, the Tm in experiment [3] is 40.8 °C; in [5], 43.3 °C; in experiment [6], 46.7 °C.
In turn, `C/C(=N/NC(=O)c1cccc(S(=O)(=O)N2CCOCC2)c1)c1cccnc1` returned an IC50 in experiment [4] above 3 µM.
With `C/C(=N\NC(=O)c1cccc(S(=O)(=O)N2CCOCC2)c1)c1cccc(Cl)c1F`, the values for the 50% inhibitory concentration (IC50) (with T47D; in [4]) were above 10 µM and above 3 µM, respectively.
The corresponding values for `CC/C(=N/NC(=O)c1cccc(S(=O)(=O)N2CCOCC2)c1)c1cc(Cl)ccc1O` are 0.352 µM and above 3 µM.
Consider `COC(=O)c1cc(CN2CCN(C(=N)N)CC2)cc(C(=O)N2CCN(C(=O)c3ccc(C=N)cc3)CC2)c1`, for which the IC50 in experiment [7] was 5.2 µM.
As to `C/C(=N\NC(=O)c1cccc(S(=O)(=O)N2CCOCC2)c1)c1cc(Cl)ccc1O`, the IC50 in experiment [8] is above 10 µM; on Cytochrome P450 2C19, 9.76 µM; against Cytochrome P450 2C9, 8.04 µM; in [9], above 300 µM; at Cytochrome P450 1A2 it was above 10 µM; in experiment [11] it was above 10 µM. The IC50 is above 10 µM against Cytochrome P450 2D6, 2.61 µM against Cytochrome P450 3A4, above 300 µM in [13] and above 10 µM in experiment [16]. The inhibition constant (Ki) came out at 0.0352 µM in experiment [10]; 0.0547 µM in experiment [12]; 0.0353 µM in [14]; 0.0319 µM in [15]; 0.0135 µM in experiment [17]. The compound also had an inhibition in experiment [1] of 65.7%. The values for the Tm in experiment [3] and in [5] were 45.4 °C and 44.6 °C, respectively.
As to `O=C(NNC(=O)c1cc(S(=O)(=O)N2CCOCC2)ccc1F)c1cccc(Cl)c1`, the IC50 in the experiment with T47D was above 10 µM; in experiment [4], above 3 µM.
Turning to `C/C(=N/NC(=O)c1cnc(Cl)c(Br)c1)c1cc(Cl)ccc1O`, the results for the IC50 (in the experiment on T47D; in experiment [4]) were 0.27 µM and above 3 µM, respectively.
The like results for `CCN(CC)c1cccc(C(=O)N/N=C(\C)c2cccc(C)c2)c1` were, in that order, above 10 µM and above 3 µM.
The corresponding values for `COc1ccc(Cl)cc1C(=O)NNC(=O)c1cc(S(=O)(=O)N2CCOCC2)ccc1F` are above 10 µM and above 3 µM.
Compound `C/C(=N/NC(=O)c1cccc(S(=O)(=O)N(C)C)c1)c1cc(Cl)ccc1O` displayed an IC50 in the experiment with T47D of 1.38 µM.
Compound `C/C(=N\NC(=O)c1cccc(S(=O)(=O)N2CCOCC2)c1)c1cccc2ccccc12` had an IC50 in the experiment on T47D above 10 µM.
Consider `C/C(=N/NC(=O)c1cncc(Cl)c1)c1cc(Cl)ccc1O`, for which the figures for the IC50 (with T47D; in experiment [4]) were 0.616 µM and above 3 µM, respectively.
The corresponding values for `C/C(=N\NC(=O)c1ccccc1)c1c(O)cccc1O` are above 10 µM and above 3 µM.
`C/C(=N\NC(=O)c1cccc(S(=O)(=O)N2CCOCC2)c1)c1ccnc(Cl)c1`: the figures for the IC50 (in the experiment with T47D; in [4]) were above 10 µM and above 3 µM, respectively.
The corresponding values for `C/C(=N/NC(=O)c1ccc(Cl)c(Br)c1)c1cc(Cl)ccc1O` are 0.565 µM and above 3 µM.
Consider `CCNCCCNC/C=C\CNCCCNCC`, for which the half-inhibitory concentration (IC50) in experiment [18] amounted to 0.25 µM.
